Source: article PMC6009956, “Design, synthesis and biological activity of N^4-phenylsubstituted-7H-pyrrolo[2,3-d]pyrimidin-4-amines as dual inhibitors of aurora kinase A and epidermal growth factor receptor kinase” (Journal of Enzyme Inhibition and Medicinal Chemistry, 2017)
Read-outs that look alike come from different tables or passages of the source. Values belong to the compound of their own block, whether it stands above or below them.

Columns and labels:
aurora A kinase (AURKA) = biological target: T1, aurora A kinase (AURKA) (Homo sapiens, UniProt O14965); assay: ADP-Glo kinase assay, Aurora A; assay type: biochemical
T1 construct: purchased BPS Bioscience (assay run externally by the vendor)
T1 sequence (O14965 1-403): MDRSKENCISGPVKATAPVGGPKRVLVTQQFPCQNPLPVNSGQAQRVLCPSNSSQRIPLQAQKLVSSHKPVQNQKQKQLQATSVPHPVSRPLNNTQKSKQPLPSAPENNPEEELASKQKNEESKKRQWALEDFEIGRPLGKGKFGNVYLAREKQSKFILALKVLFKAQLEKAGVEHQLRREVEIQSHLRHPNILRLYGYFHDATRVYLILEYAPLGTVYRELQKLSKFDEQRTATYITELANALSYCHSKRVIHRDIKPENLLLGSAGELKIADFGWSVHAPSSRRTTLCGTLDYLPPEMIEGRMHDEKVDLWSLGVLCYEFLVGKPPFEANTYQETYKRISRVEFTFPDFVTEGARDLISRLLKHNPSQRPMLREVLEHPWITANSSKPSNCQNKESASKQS

EGFR = EGFR (Homo sapiens, UniProt P00533); assay: ADP-Glo kinase assay, EGFR; assay type: biochemical; design: purchased BPS Bioscience (assay run externally by the vendor)
EGFR, sequence (P00533 25-1210): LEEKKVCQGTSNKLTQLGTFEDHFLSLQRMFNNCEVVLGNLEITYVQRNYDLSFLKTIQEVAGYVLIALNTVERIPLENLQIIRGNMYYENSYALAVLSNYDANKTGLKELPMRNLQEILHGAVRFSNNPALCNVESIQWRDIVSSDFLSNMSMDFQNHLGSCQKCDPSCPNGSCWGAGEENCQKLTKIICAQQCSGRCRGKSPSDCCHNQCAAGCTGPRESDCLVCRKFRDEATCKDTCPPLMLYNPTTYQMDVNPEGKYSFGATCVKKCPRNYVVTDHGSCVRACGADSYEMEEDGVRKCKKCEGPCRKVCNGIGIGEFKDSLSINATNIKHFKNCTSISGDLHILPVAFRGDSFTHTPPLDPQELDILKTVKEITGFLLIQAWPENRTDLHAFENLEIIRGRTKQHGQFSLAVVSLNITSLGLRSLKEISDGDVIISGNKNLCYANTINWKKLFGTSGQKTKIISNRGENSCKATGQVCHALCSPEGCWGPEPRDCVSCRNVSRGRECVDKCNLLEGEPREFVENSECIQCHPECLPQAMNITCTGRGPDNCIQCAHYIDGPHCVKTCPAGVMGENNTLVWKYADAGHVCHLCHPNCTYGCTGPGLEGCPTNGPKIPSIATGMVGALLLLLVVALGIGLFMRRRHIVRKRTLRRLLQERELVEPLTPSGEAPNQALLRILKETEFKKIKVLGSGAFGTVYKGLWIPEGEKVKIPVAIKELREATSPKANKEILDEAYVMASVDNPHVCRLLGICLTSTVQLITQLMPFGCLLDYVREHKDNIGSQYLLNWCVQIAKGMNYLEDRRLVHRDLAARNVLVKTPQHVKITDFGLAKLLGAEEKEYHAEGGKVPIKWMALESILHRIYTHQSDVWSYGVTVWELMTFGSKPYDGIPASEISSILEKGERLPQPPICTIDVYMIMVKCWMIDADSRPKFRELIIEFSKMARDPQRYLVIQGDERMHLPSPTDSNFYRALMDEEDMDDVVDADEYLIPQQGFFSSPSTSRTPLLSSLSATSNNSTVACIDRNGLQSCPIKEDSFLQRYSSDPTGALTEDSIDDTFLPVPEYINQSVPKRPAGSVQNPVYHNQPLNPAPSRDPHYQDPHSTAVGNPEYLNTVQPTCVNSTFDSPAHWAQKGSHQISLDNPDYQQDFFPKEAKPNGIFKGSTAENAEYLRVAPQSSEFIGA

IC50 (aurora A kinase (AURKA); 10 µM ATP, triplicate, read-out: AURKA IC50 ± SD): 5780 ± 430 nM
IC50 (aurora A kinase (AURKA); 10 µM ATP/0.2 mg/ml Kemptide, read-out: Aurora A IC50 (dose-response curve, supplement)): 5800 nM
Aurora A % Activity Set1 (aurora A kinase (AURKA); Log[nM] 0): 94%
Aurora A % Activity Set2 (aurora A kinase (AURKA); Log[nM] 0): 101%
Aurora A % Activity Set3 (aurora A kinase (AURKA); Log[nM] 0): 96%
Aurora A % Activity Set1 (aurora A kinase (AURKA); Log[nM] 1.0): 103%
Aurora A % Activity Set2 (aurora A kinase (AURKA); Log[nM] 1.0): 101%
Aurora A % Activity Set3 (aurora A kinase (AURKA); Log[nM] 1.0): 106%
Aurora A % Activity Set1 (aurora A kinase (AURKA); Log[nM] 1.5): 107%
Aurora A % Activity Set2 (aurora A kinase (AURKA); Log[nM] 1.5): 113%
Aurora A % Activity Set3 (aurora A kinase (AURKA); Log[nM] 1.5): 119%
Aurora A % Activity Set1 (aurora A kinase (AURKA); Log[nM] 2.0): 110%
Aurora A % Activity Set2 (aurora A kinase (AURKA); Log[nM] 2.0): 108%
Aurora A % Activity Set3 (aurora A kinase (AURKA); Log[nM] 2.0): 113%
Aurora A % Activity Set1 (aurora A kinase (AURKA); Log[nM] 2.5): 108%
Aurora A % Activity Set2 (aurora A kinase (AURKA); Log[nM] 2.5): 108%
Aurora A % Activity Set3 (aurora A kinase (AURKA); Log[nM] 2.5): 112%
Aurora A % Activity Set1 (aurora A kinase (AURKA); Log[nM] 3.0): 94%
Aurora A % Activity Set2 (aurora A kinase (AURKA); Log[nM] 3.0): 100%
Aurora A % Activity Set3 (aurora A kinase (AURKA); Log[nM] 3.0): 94%
Aurora A % Activity Set1 (aurora A kinase (AURKA); Log[nM] 3.5): 73%
Aurora A % Activity Set2 (aurora A kinase (AURKA); Log[nM] 3.5): 63%
Aurora A % Activity Set3 (aurora A kinase (AURKA); Log[nM] 3.5): 72%
Aurora A % Activity Set1 (aurora A kinase (AURKA); Log[nM] 4.0): 32%
Aurora A % Activity Set2 (aurora A kinase (AURKA); Log[nM] 4.0): 26%
Aurora A % Activity Set3 (aurora A kinase (AURKA); Log[nM] 4.0): 28%
Aurora A % Activity Set1 (aurora A kinase (AURKA); Log[nM] 4.5): 13%
Aurora A % Activity Set2 (aurora A kinase (AURKA); Log[nM] 4.5): 10%
Aurora A % Activity Set3 (aurora A kinase (AURKA); Log[nM] 4.5): 11%
Aurora A % Activity Set1 (aurora A kinase (AURKA); Log[nM] 5.0): 14%
Aurora A % Activity Set2 (aurora A kinase (AURKA); Log[nM] 5.0): 11%
Aurora A % Activity Set3 (aurora A kinase (AURKA); Log[nM] 5.0): 13%
IC50 (EGFR; 10 µM ATP, triplicate, cell without unit, read-out: EGFR IC50 ± SD): 43.6 ± 7.77 nM
IC50 (EGFR; 10 µM ATP/0.2 mg/ml Poly-Glu-Tyr, read-out: EGFR IC50 (dose-response curve, supplement)): 43.9 nM
EGFR % Activity Set1 (EGFR; Log[nM] 0): 91%
EGFR % Activity Set2 (EGFR; Log[nM] 0): 92%
EGFR % Activity Set3 (EGFR; Log[nM] 0): 91%
EGFR % Activity Set1 (EGFR; Log[nM] 1.0): 66%
EGFR % Activity Set2 (EGFR; Log[nM] 1.0): 76%
EGFR % Activity Set3 (EGFR; Log[nM] 1.0): 95%
EGFR % Activity Set1 (EGFR; Log[nM] 1.5): 54%
EGFR % Activity Set2 (EGFR; Log[nM] 1.5): 61%
EGFR % Activity Set3 (EGFR; Log[nM] 1.5): 56%
EGFR % Activity Set1 (EGFR; Log[nM] 2.0): 29%
EGFR % Activity Set2 (EGFR; Log[nM] 2.0): 30%
EGFR % Activity Set3 (EGFR; Log[nM] 2.0): 32%
EGFR % Activity Set1 (EGFR; Log[nM] 2.5): 17%
EGFR % Activity Set2 (EGFR; Log[nM] 2.5): 19%
EGFR % Activity Set3 (EGFR; Log[nM] 2.5): 15%
EGFR % Activity Set1 (EGFR; Log[nM] 3.0): 8%
EGFR % Activity Set2 (EGFR; Log[nM] 3.0): 8%
EGFR % Activity Set3 (EGFR; Log[nM] 3.0): 6%
EGFR % Activity Set1 (EGFR; Log[nM] 3.5): 3%
EGFR % Activity Set2 (EGFR; Log[nM] 3.5): 4%
EGFR % Activity Set3 (EGFR; Log[nM] 3.5): 3%
EGFR % Activity Set1 (EGFR; Log[nM] 4.0): 0%
EGFR % Activity Set2 (EGFR; Log[nM] 4.0): 1%
EGFR % Activity Set3 (EGFR; Log[nM] 4.0): 1%
EGFR % Activity Set1 (EGFR; Log[nM] 4.5): 0%
EGFR % Activity Set2 (EGFR; Log[nM] 4.5): 1%
EGFR % Activity Set3 (EGFR; Log[nM] 4.5): 0%
EGFR % Activity Set1 (EGFR; Log[nM] 5.0): 0%
EGFR % Activity Set2 (EGFR; Log[nM] 5.0): 0%
EGFR % Activity Set3 (EGFR; Log[nM] 5.0): 1%
SMILES: FC(F)(F)c1cccc(Nc2ncnc3[nH]ccc23)c1 [Compound 13, N^4-(3-trifluoromethylphenyl)-7H-pyrrolo[2,3-d]pyrimidin-4-amine]

SMILES: CN[C@@H]1C[C@H]2O[C@@](C)([C@@H]1OC)n1c3ccccc3c3c4c(c5c6ccccc6n2c5c31)C(=O)NC4 [Staurosporine, staurosporine, reference compound]
Aurora A % Activity Set1 (aurora A kinase (AURKA); Log[nM] 0): 109%
Aurora A % Activity Set2 (aurora A kinase (AURKA); Log[nM] 0): 103%
Aurora A % Activity Set3 (aurora A kinase (AURKA); Log[nM] 0): 109%
Aurora A % Activity Set1 (aurora A kinase (AURKA); Log[nM] 1.0): 102%
Aurora A % Activity Set2 (aurora A kinase (AURKA); Log[nM] 1.0): 101%
Aurora A % Activity Set3 (aurora A kinase (AURKA); Log[nM] 1.0): 102%
Aurora A % Activity Set1 (aurora A kinase (AURKA); Log[nM] 1.5): 73%
Aurora A % Activity Set2 (aurora A kinase (AURKA); Log[nM] 1.5): 69%
Aurora A % Activity Set3 (aurora A kinase (AURKA); Log[nM] 1.5): 85%
Aurora A % Activity Set2 (aurora A kinase (AURKA); Log[nM] 2.0): 9%
Aurora A % Activity Set1 (aurora A kinase (AURKA); Log[nM] -0.5): 98%
Aurora A % Activity Set2 (aurora A kinase (AURKA); Log[nM] -0.5): 100%
Aurora A % Activity Set3 (aurora A kinase (AURKA); Log[nM] -0.5): 102%
Aurora A % Activity Set1 (aurora A kinase (AURKA); Log[nM] -1.0): 100%
Aurora A % Activity Set2 (aurora A kinase (AURKA); Log[nM] -1.0): 93%
Aurora A % Activity Set3 (aurora A kinase (AURKA); Log[nM] -1.0): 102%
